{"source": "PubChem BioAssay (NCI)", "assay_in_all_cases": "inhibition of tumour cell growth, NCI panel, 48 h", "key": {"[1]": {"tested_on": "MALME-3M melanoma"}, "[2]": {"tested_on": "HT29 colon"}, "[3]": {"tested_on": "IGROV1 ovarian"}, "[4]": {"tested_on": "UACC-257 melanoma"}, "[5]": {"tested_on": "OVCAR-4 ovarian"}, "[6]": {"tested_on": "UACC-62 melanoma"}, "[7]": {"tested_on": "UO-31 renal"}, "[8]": {"tested_on": "SK-MEL-5 melanoma"}, "[9]": {"tested_on": "SNB-19 CNS"}, "[10]": {"tested_on": "EKVX NSCLC"}}, "note": "Several values for one entry are separate records, joined by “and”; a condition that tells them apart may be missing. Identical values can stand only once.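 Each compound was tested at five concentrations against cells in 96-well plates for 48 hours. At the GI50, growth is halved. TGI: total growth inhibition.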", "data": [{"smiles": "COc1ccc(CC2C(=O)NC(C)C(=O)N(C)C3Cc4ccc(cc4)Oc4cc(ccc4O)CC(C(=O)NC(C)C(=O)NC(C)C(=O)N2C)N(C)C3=O)cc1", "note": "(stereo unspecified)", "values": [{"measurement": "GI50", "setting": "[1]", "result": "< 0.0001", "unit": "µM"}, {"measurement": "GI50", "setting": "[2]", "result": "< 0.0001", "unit": "µM"}, {"measurement": "TGI", "setting": "[2]", "result": "0.0347 µM and 0.0161 µM and 0.152 µM"}, {"measurement": "GI50", "setting": "[3]", "result": "< 0.0001", "unit": "µM"}, {"measurement": "TGI", "setting": "[3]", "result": 0.0203, "unit": "µM"}, {"measurement": "GI50", "setting": "[4]", "result": "< 0.0001", "unit": "µM"}, {"measurement": "GI50", "setting": "[5]", "result": "< 0.0001", "unit": "µM"}, {"measurement": "TGI", "setting": "[5]", "result": "0.523 µM and 0.131 µM and 0.088 µM"}, {"measurement": "TGI", "setting": "[6]", "result": "0.161 µM and 0.0223 µM"}, {"measurement": "GI50", "setting": "[7]", "result": 0.24, "unit": "µM"}, {"measurement": "TGI", "setting": "[7]", "result": "5.75 µM and 4.16 µM"}, {"measurement": "GI50", "setting": "[8]", "result": 0.00102, "unit": "µM"}, {"measurement": "TGI", "setting": "[8]", "result": "0.0532 µM and 0.127 µM and 0.0679 µM"}, {"measurement": "GI50", "setting": "[9]", "result": "< 0.0001", "unit": "µM"}, {"measurement": "GI50", "setting": "[10]", "result": 0.00125, "unit": "µM"}, {"measurement": "TGI", "setting": "[10]", "result": "0.144 µM and 0.0424 µM"}]}, {"smiles": "COc1ccc(-c2c(C(C)=O)c(C)n(C3OC(CO)C(O)C(O)C3O)c(=S)c2C#N)cc1", "note": "(stereo unspecified)", "values": [{"measurement": "TGI", "setting": "[1]", "result": "> 100", "unit": "µM"}, {"measurement": "TGI", "setting": "[2]", "result": "> 100", "unit": "µM"}, {"measurement": "TGI", "setting": "[3]", "result": "> 100", "unit": "µM"}, {"measurement": "TGI", "setting": "[4]", "result": "> 100", "unit": "µM"}, {"measurement": "TGI", "setting": "[5]", "result": "> 100", "unit": "µM"}, {"measurement": "TGI", "setting": "[6]", "result": "> 100", "unit": "µM"}, {"measurement": "TGI", "setting": "[7]", "result": "> 100", "unit": "µM"}, {"measurement": "TGI", "setting": "[8]", "result": "> 100", "unit": "µM"}, {"measurement": "TGI", "setting": "[9]", "result": 33.6, "unit": "µM"}, {"measurement": "TGI", "setting": "[10]", "result": "> 100", "unit": "µM"}]}, {"smiles": "NC(CO)c1ccccc1", "note": "(stereo unspecified)", "values": [{"measurement": "TGI", "setting": "[1]", "result": "> 100", "unit": "µM"}, {"measurement": "TGI", "setting": "[2]", "result": "> 100", "unit": "µM"}, {"measurement": "TGI", "setting": "[3]", "result": "> 100", "unit": "µM"}, {"measurement": "TGI", "setting": "[4]", "result": "> 100", "unit": "µM"}, {"measurement": "TGI", "setting": "[5]", "result": "> 100", "unit": "µM"}, {"measurement": "TGI", "setting": "[6]", "result": "> 100", "unit": "µM"}, {"measurement": "TGI", "setting": "[7]", "result": "> 100", "unit": "µM"}, {"measurement": "TGI", "setting": "[8]", "result": "> 100", "unit": "µM"}, {"measurement": "TGI", "setting": "[9]", "result": "> 100", "unit": "µM"}, {"measurement": "TGI", "setting": "[10]", "result": "> 100", "unit": "µM"}]}, {"smiles": "CCOC(=O)C(Cc1c(-c2[nH]c3ccccc3c2CC(NC(=O)CNC(C)=O)C(=O)OCC)[nH]c2ccccc12)NC(=O)CNC(C)=O", "note": "(stereo unspecified)", "values": [{"measurement": "TGI", "setting": "[1]", "result": 38.2, "unit": "µM"}, {"measurement": "TGI", "setting": "[2]", "result": "> 100", "unit": "µM"}, {"measurement": "TGI", "setting": "[3]", "result": "> 100", "unit": "µM"}, {"measurement": "TGI", "setting": "[4]", "result": 73.5, "unit": "µM"}, {"measurement": "TGI", "setting": "[5]", "result": "> 100", "unit": "µM"}, {"measurement": "TGI", "setting": "[6]", "result": "> 100", "unit": "µM"}, {"measurement": "TGI", "setting": "[7]", "result": "> 100", "unit": "µM"}, {"measurement": "TGI", "setting": "[8]", "result": "> 100", "unit": "µM"}, {"measurement": "TGI", "setting": "[9]", "result": "> 100", "unit": "µM"}, {"measurement": "TGI", "setting": "[10]", "result": "> 100", "unit": "µM"}]}, {"smiles": "CC(=O)c1nccc2c1c(C)nc1ccccc12", "values": [{"measurement": "TGI", "setting": "[1]", "result": "> 100", "unit": "µM"}, {"measurement": "TGI", "setting": "[2]", "result": "> 100", "unit": "µM"}, {"measurement": "TGI", "setting": "[3]", "result": "> 100", "unit": "µM"}, {"measurement": "TGI", "setting": "[4]", "result": "> 100", "unit": "µM"}, {"measurement": "TGI", "setting": "[5]", "result": "> 100", "unit": "µM"}, {"measurement": "TGI", "setting": "[6]", "result": "> 100", "unit": "µM"}, {"measurement": "TGI", "setting": "[7]", "result": "> 100", "unit": "µM"}, {"measurement": "TGI", "setting": "[8]", "result": "> 100", "unit": "µM"}, {"measurement": "TGI", "setting": "[9]", "result": "> 100", "unit": "µM"}, {"measurement": "TGI", "setting": "[10]", "result": "> 100", "unit": "µM"}]}, {"smiles": "C=C1C(=O)C[C@@]23CCC[C@@]12CC(O)C3", "note": "(stereo partly specified)", "values": [{"measurement": "TGI", "setting": "[1]", "result": 18.3, "unit": "µM"}, {"measurement": "TGI", "setting": "[2]", "result": 33.2, "unit": "µM"}, {"measurement": "TGI", "setting": "[3]", "result": 12.8, "unit": "µM"}, {"measurement": "TGI", "setting": "[4]", "result": 52.3, "unit": "µM"}, {"measurement": "TGI", "setting": "[5]", "result": 36.2, "unit": "µM"}, {"measurement": "TGI", "setting": "[6]", "result": 30.9, "unit": "µM"}, {"measurement": "TGI", "setting": "[7]", "result": "> 94.6", "unit": "µM"}, {"measurement": "TGI", "setting": "[8]", "result": "> 39.5", "unit": "µM"}, {"measurement": "TGI", "setting": "[9]", "result": "> 100", "unit": "µM"}, {"measurement": "TGI", "setting": "[10]", "result": "> 73.5", "unit": "µM"}]}]}
